# Test results taken from PubChem BioAssay AID1963832 (Molecular Pharmacology Branch, DTP, NCI, 2024).
# Values joined by “and” are separate entries in the source; they are usually repeats but may differ in a detail not shown here. Equal values may be shown once.
# Test system: 885724-159-R-J1-PDC complex spheroid viability
# Assay: Anticancer human tumor 885724-159-R-J1-PDC patient-derived pancreatic adenocarcinoma cell line growth inhibition [POLQ]
# Conditions: for viability, T/C: stronger effect = lower value
# Experimental: Multicellular complex tumor spheroid response to Polymerase (POL) inhibitors (novobiocin, ART-558, RP6685) in combination with a variety of drugs and investigational agents in selected tumor cell lines
# The POL inhibitors (novobiocin, ART-558, and RP6685) were evaluated both individually and in combination with standard of care and investigational anticancer small molecules within a complex spheroid model of solid tumors. . Complex spheroids include a stromal component modeled by human endothelial cells (HUVEC) and fibroblasts modeled by human mesenchymal stem cells (MSCs). The concentration ranges selected for each drug and investigational agent were based upon clinically achievable concentrations if the clinical Cmax of the agent was known.
# Compounds. The drugs and investigational agents: novobiocin (NSC847541), ART-558 (NSC835418), RP-6685 (NSC848927), peposertib (NSC802822), ceralasertib (NSC780249), elimusertib (NSC800525), camonsertib (NSC841442), AZD-1390 (NSC803789), olaparib (NSC753686), talazoparib (NSC767125), rucaparib (NSC756644), sotorasib (NSC818433), MRTX-1133 (NSC836407), SN-38 (NSC673596), topotecan (NSC609699), epotoside (NSC141540), doxorubicin (NSC123127), gemcitabine (NSC613327), 5-fluorouracil (NSC19893), paclitaxel (NSC125973), vemurafenib (NSC761431), MSA-2 (NSC828583), SN-011 (NSC837082), adavosertib (NSC754352), prexasertib (NSC758257), carboplatin (NSC241240) and oxaliplatin (NSC266046), were obtained from the National Cancer Institute (NCI) Developmental Therapeutics Program Chemical Repository (21). The FDA-approved anticancer drug set is available from the Developmental Therapeutics Program at https://dtp.cancer.gov/organization/dscb/obtaining/. […] The stock solutions were prepared in dimethyl sulfoxide (DMSO, Sigma-Aldrich, St. Louis, MO, cat. D2650), except for the platinum compounds which were prepared in saline (Quality Biological, Gaithersburg, MD, cat. 114-055-101), at 800-fold the tested concentration and stored at -70 degrees C prior to their use. All drugs and investigational agents were tested over a range starting from a high concentration at or near the clinical Cmax and decreasing in half-log increments. If the clinical Cmax for an agent had not been determined, the highest concentration tested was 10 microM, except for SN-38, which was tested at a high concentration of 1 microM.
# Cell Culture. All cells were maintained in an incubator at 37 degrees C and 5% CO2 with 95% humidity. The PDC lines were cultured according to standard operating procedures established by the NCI PDMR (https://pdmr.cancer.gov). Table 3 of the manuscript, lists the cell lines along with the number of the three cell types plated to form the mct-spheroids and media for tumor cell growth. After thawing, all PDC lines, except 997537-175-T-J1-PDC and 415267-285-R-J2-PDC, were cultured in Matrigel-coated flasks prepared with a working solution of 1X Ham's F-12 nutrient mix, without supplementation (Thermo Fisher Scientific, cat. 11765054), 100 U/mL penicillin-streptomycin (Thermo Fisher Scientific, cat. 15140122), and 2.5% Matrigel (Corning Inc., Corning, NY, cat. 354248) for the first three passages. The two PDC lines 997537-175-T-J1-PDC and 415267-285-R-J2-PDC were cultured on uncoated flasks. The 857933-349-R-J2-PDC line was cultured in 6C/Colon 1B media containing advanced DMEM/F-12 (Thermo Fisher Scientific, cat. 12634028), 10 mM HEPES (Thermo Fisher Scientific, cat. 15630080), 1X GlutaMAX supplement (Thermo Fisher Scientific, cat. 35050061), 0.1 mg/mL primocin (InvivoGen, San Diego, CA, cat. ant-pm-2), 10% defined fetal bovine serum, heat inactivated (HyClone Laboratories Inc., Logan, UT, cat. SH30070.03HI), 50% L-WRN conditioned media (ATCC, cat. CRL-3276), 1.25 mM N-Acetyl-L-cysteine (Sigma-Aldrich, cat. A9165), 10 mM nicotinamide (Sigma-Aldrich, cat. N0636), 1X B-27 supplement (Thermo Fisher Scientific, cat. 17504044), 1X N-2 supplement (Thermo Fisher Scientific, cat. […]
# 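Note: spheroids exposed to compounds for 7 days.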
smiles,measurement,setting,value
C#Cc1c(F)ccc2cc(O)cc(-c3ncc4c(N5CC6CCC(C5)N6)nc(OCC56CCCN5CC(F)C6)nc4c3F)c12 (stereo unspecified),"viability, T/C",compound 0.0316 µM,106% and 94.3% and 96.4%
same,"viability, T/C",compound 0.1 µM,99.8% and 92.7% and 89.8%
same,"viability, T/C",compound 0.316 µM,85.4% and 94.8% and 91.8%
same,"viability, T/C",compound 1 µM,67.7% and 67.8% and 78.2%
same,"viability, T/C",compound 3.16 µM,38.5% and 45.1% and 45.6%
same,"viability, T/C",compound 10 µM,20.5% and 24.2% and 20.4%
same,IC50,curve of compound,2.02 µM and 2.37 µM and 2.71 µM
Cc1cccc(N(C)C(=O)C2C(O)CCN2c2nc(C)cc(C(F)(F)F)c2C#N)c1 (stereo unspecified),"viability, T/C",compound 0.0316 µM,96.2% [middle of 13 runs]
same,"viability, T/C",compound 0.1 µM,97.6% [middle of 13 runs]
same,"viability, T/C",compound 0.316 µM,102% [middle of 13 runs]
same,"viability, T/C",compound 1 µM,100% [middle of 13 runs]
same,"viability, T/C",compound 3.16 µM,99.2% [middle of 13 runs]
same,IC50,"compound alone, run of 11/27/2023",> 10 µM
same,IC50,"compound alone, run of 12/05/2023",> 10 µM
COc1ccc([C@@H](O)c2cc(-c3ncnc4cc(N5CCOCC5)ccc34)c(F)cc2Cl)nn1,"viability, T/C",compound 0.0316 µM,94% and 96% and 96.8%
same,"viability, T/C",compound 0.1 µM,79.5% and 83.5% and 87.4%
same,"viability, T/C",compound 0.316 µM,86.8% and 78% and 76%
same,"viability, T/C",compound 1 µM,71.7% and 68.9% and 70.9%
same,"viability, T/C",compound 3.16 µM,59% and 58.1% and 55%
same,"viability, T/C",compound 10 µM,35.5% and 33% and 38.2%
same,IC50,curve of compound,4.86 µM and 4.08 µM and 4.45 µM
O=C(Nc1ccc(O)c(NS(=O)(=O)c2ccc(F)cc2)c1)c1ccc(-c2ccccc2)cc1,"viability, T/C",compound 0.0316 µM,98% and 103% and 91.6%
same,"viability, T/C",compound 0.1 µM,107% and 100% and 93.8%
same,"viability, T/C",compound 0.316 µM,101% and 88.4% and 88.6%
same,"viability, T/C",compound 1 µM,100% and 110% and 97.2%
same,"viability, T/C",compound 3.16 µM,112% and 118% and 108%
same,"viability, T/C",compound 10 µM,117% and 97.2% and 76%
same,IC50,curve of compound,> 10 µM
CCc1cc2c(N3CCc4c(cc(Cn5ccnc5)cc4-c4cn(C)nc4C(F)(F)F)C3=O)ccnc2c(OC)n1,"viability, T/C",compound 0.0316 µM,93.9% and 86.6% and 89.7%
same,"viability, T/C",compound 0.1 µM,80.4% and 79.6% and 85%
same,"viability, T/C",compound 0.316 µM,87.7% and 80.6% and 84.8%
same,"viability, T/C",compound 1 µM,72.1% and 82.8% and 82.3%
same,"viability, T/C",compound 3.16 µM,76.9% and 72.9% and 80%
same,"viability, T/C",compound 10 µM,64.6% and 72.9% and 65%
same,IC50,curve of compound,> 10 µM
COc1cccc(OCCCN)c1-c1cc(Nc2cnc(C#N)cn2)n[nH]1,"viability, T/C",compound 0.00316 µM,62.5% and 76.4% and 69.2%
same,"viability, T/C",compound 0.01 µM,46.4% and 49.5% and 54.3%
same,"viability, T/C",compound 0.0316 µM,45.3% and 44.2% and 49.7%
same,"viability, T/C",compound 0.1 µM,42.2% and 45.4% and 51.1%
same,"viability, T/C",compound 0.316 µM,44.9% and 42.6% and 47%
same,"viability, T/C",compound 1 µM,44.4% and 47.1% and 48%
same,IC50,curve of compound,0.00782 µM and 0.00969 µM and 0.0326 µM
CC1COCCN1c1cc(C2(S(C)(=N)=O)CC2)nc(-c2ccnc3[nH]ccc23)n1 (stereo unspecified),"viability, T/C",compound 0.0316 µM,96.4% and 90.3% and 97.2%
same,"viability, T/C",compound 0.1 µM,100% and 94.7% and 97.1%
same,"viability, T/C",compound 0.316 µM,93.7% and 85.1% and 88.2%
same,"viability, T/C",compound 1 µM,73.4% and 67.6% and 74.4%
same,"viability, T/C",compound 3.16 µM,55% and 54.6% and 54.8%
same,"viability, T/C",compound 10 µM,45.8% and 44.7% and 42.3%
same,IC50,curve of compound,5.73 µM and 4.93 µM
COc1cccc2c1C(=O)c1c(O)c3c(c(O)c1C2=O)CC(O)(C(=O)CO)CC3OC1CC(N)C(O)C(C)O1 (stereo unspecified) + Cc1cccc(N(C)C(=O)C2C(O)CCN2c2nc(C)cc(C(F)(F)F)c2C#N)c1,IC50,"curve of first compound, second compound 0.0316 µM",0.142 µM
same,IC50,"curve of first compound, second compound 0.1 µM",0.14 µM
same,IC50,"curve of first compound, second compound 0.316 µM",0.139 µM
same,IC50,"curve of first compound, second compound 1 µM",0.112 µM
same,IC50,"curve of first compound, second compound 3.16 µM",0.117 µM
same,IC50,"curve of first compound, second compound 10 µM",0.124 µM
same,"viability, T/C","second compound 0.0316 µM, first compound 0.0316 µM",72.8%
same,"viability, T/C","second compound 0.0316 µM, first compound 0.1 µM",57.1%
same,"viability, T/C","second compound 0.0316 µM, first compound 0.316 µM",32.5%
same,"viability, T/C","second compound 0.0316 µM, first compound 1 µM",11.3%
same,"viability, T/C","second compound 0.0316 µM, first compound 3.16 µM",5.41%
same,"viability, T/C","second compound 0.0316 µM, first compound 10 µM",6.51%
same,"viability, T/C","second compound 0.1 µM, first compound 0.0316 µM",67.6%
same,"viability, T/C","second compound 0.1 µM, first compound 0.1 µM",55.5%
same,"viability, T/C","second compound 0.1 µM, first compound 0.316 µM",34.5%
same,"viability, T/C","second compound 0.1 µM, first compound 1 µM",11.9%
same,"viability, T/C","second compound 0.1 µM, first compound 3.16 µM",5.56%
same,"viability, T/C","second compound 0.1 µM, first compound 10 µM",8.59%
same,"viability, T/C","second compound 0.316 µM, first compound 0.0316 µM",80.8%
same,"viability, T/C","second compound 0.316 µM, first compound 0.1 µM",57.1%
same,"viability, T/C","second compound 0.316 µM, first compound 0.316 µM",31%
same,"viability, T/C","second compound 0.316 µM, first compound 1 µM",8.3%
same,"viability, T/C","second compound 0.316 µM, first compound 3.16 µM",5.71%
same,"viability, T/C","second compound 0.316 µM, first compound 10 µM",9.04%
same,"viability, T/C","second compound 1 µM, first compound 0.0316 µM",75.3%
same,"viability, T/C","second compound 1 µM, first compound 0.1 µM",51%
same,"viability, T/C","second compound 1 µM, first compound 0.316 µM",30.4%
same,"viability, T/C","second compound 1 µM, first compound 1 µM",10.5%
same,"viability, T/C","second compound 1 µM, first compound 3.16 µM",5.49%
same,"viability, T/C","second compound 1 µM, first compound 10 µM",6.59%
same,"viability, T/C","second compound 3.16 µM, first compound 0.0316 µM",75.5%
same,"viability, T/C","second compound 3.16 µM, first compound 0.1 µM",51.7%
same,"viability, T/C","second compound 3.16 µM, first compound 0.316 µM",30.3%
same,"viability, T/C","second compound 3.16 µM, first compound 1 µM",5.5%
same,"viability, T/C","second compound 3.16 µM, first compound 3.16 µM",6.53%
same,"viability, T/C","second compound 3.16 µM, first compound 10 µM",6.91%
same,"viability, T/C","second compound 10 µM, first compound 0.0316 µM",72.7%
same,"viability, T/C","second compound 10 µM, first compound 0.1 µM",55.6%
same,"viability, T/C","second compound 10 µM, first compound 0.316 µM",22.9%
same,"viability, T/C","second compound 10 µM, first compound 1 µM",2.58%
same,"viability, T/C","second compound 10 µM, first compound 3.16 µM",4.96%
same,"viability, T/C","second compound 10 µM, first compound 10 µM",6.82%
